# Assay results reported in US20250302746A1, “METHOD FOR PRODUCING EMULSIFIED COMPOSITION” (Daicel Corporation, priority 2022, published 2025).
# How the values were obtained:
# [1] = Test Example 1: transmittance of emulsified composition (660 nm, optical path 10 mm); format: physicochemical; conditions: balance glycerol, 10000 rpm
# Method: (§1) The transmittance of the emulsified composition produced in this example was determined as a transmittance for light having a wave length of 660 nm at a measurement optical path length of 10 mm using an ultraviolet-visible spectrophotometer UV-1800 (manufactured by Shimadzu Corporation). In the following test, a case where the transmittance was less than 40% was indicated by “C”, a case where the transmittance was 40% or greater and less than 80% was indicated by “B”, and a case where the transmittance was 80% or greater was indicated by “A”.
# A solution having a composition of parts by weight shown in Table 1 (a solution in which the balance is glycerol and the total is 100 parts by weight) was prepared and heated at a heating temperature shown in Table 1 for 3 minutes using a block heater. During being heated, the solution was mixed using a polytron homogenizer at 10000 rpm. Thereafter, the solution was allowed to stand at room temperature (about 25° C.) and the temperature of the solution was lowered to room temperature (about 25° C.) to produce an emulsified composition, and the transmittance was measured.
# [2] = Test Example 2: transmittance of emulsified composition (660 nm, optical path 10 mm); format: physicochemical; conditions: balance glycerol, heated 120° C. 3 min, 15000 rpm
# Method: as §1
# A solution having a composition of parts by weight shown in Table 2 (a solution in which the balance is glycerol and the total is 100 parts by weight) was prepared and heated at 120° C. for 3 minutes using a block heater. During being heated, the solution was mixed using a polytron homogenizer at 15000 rpm. Thereafter, the solution was allowed to stand at room temperature (about 25° C.) and the temperature of the solution was lowered to room temperature (about 25° C.) to produce an emulsified composition, and the transmittance was measured.
# [3] = Test Example 3: transmittance of emulsified composition (660 nm, optical path 10 mm); format: physicochemical; conditions: balance glycerol, 15000 rpm
# Method: as §1
# A solution having a composition of parts by weight shown in Table 3 (a solution in which the balance is glycerol and the total is 100 parts by weight) was prepared and heated at a heating temperature shown in Table 3 for 3 minutes using a block heater. During being heated, the solution was mixed using a polytron homogenizer at 15000 rpm. Thereafter, the solution was allowed to stand at room temperature (about 25° C.) and the temperature of the solution was lowered to room temperature (about 25° C.) to produce an emulsified composition, and the transmittance was measured.
# [4] = cited from earlier work
# [5] = Urolithin A 0.1, Decaglyn 1-LF (HLB 15.5) 5 parts by weight, heated 100° C. 3 min
# [6] = Urolithin A 0.1, Decaglyn 1-LF (HLB 15.5) 5 parts by weight, heated 120° C. 3 min
# [7] = Urolithin A 0.1, RYOTO polyglyester L-7D (HLB 17.0) 5 parts by weight, heated 100° C. 3 min
# [8] = Urolithin A 0.1, RYOTO polyglyester L-7D (HLB 17.0) 5 parts by weight, heated 120° C. 3 min
smiles,measurement,setting,value
"O=c1oc2cc(O)ccc2c2ccc(O)cc12 [Urolithin A, urolithin A]",Transmittance results,"[1]; Urolithin A 0.1, Decaglyn 1-LF (HLB 15.5) 5 parts by weight, heated 80° C. 3 min",C (the transmittance was less than 40%)
same,Transmittance results,[1]; [5],C (the transmittance was less than 40%)
same,Transmittance results,[1]; [6],B (the transmittance was 40% or greater and less than 80%)
same,Transmittance results,"[1]; Urolithin A 0.1, Decaglyn 1-MF (HLB 14.0) 5 parts by weight, heated 80° C. 3 min",C (the transmittance was less than 40%)
same,Transmittance results,"[1]; Urolithin A 0.1, Decaglyn 1-MF (HLB 14.0) 5 parts by weight, heated 100° C. 3 min",C (the transmittance was less than 40%)
same,Transmittance results,"[1]; Urolithin A 0.1, Decaglyn 1-MF (HLB 14.0) 5 parts by weight, heated 120° C. 3 min",B (the transmittance was 40% or greater and less than 80%)
same,Transmittance results,"[1]; Urolithin A 0.1, Decaglyn 1-OVF (HLB 12.0) 5 parts by weight, heated 80° C. 3 min",C (the transmittance was less than 40%)
same,Transmittance results,"[1]; Urolithin A 0.1, Decaglyn 1-OVF (HLB 12.0) 5 parts by weight, heated 100° C. 3 min",C (the transmittance was less than 40%)
same,Transmittance results,"[1]; Urolithin A 0.1, Decaglyn 1-OVF (HLB 12.0) 5 parts by weight, heated 120° C. 3 min",B (the transmittance was 40% or greater and less than 80%)
same,Transmittance results,"[1]; Urolithin A 0.1, RYOTO polyglyester L-7D (HLB 17.0) 5 parts by weight, heated 80° C. 3 min",C (the transmittance was less than 40%)
same,Transmittance results,[1]; [7],C (the transmittance was less than 40%)
same,Transmittance results,[1]; [8],A (the transmittance was 80% or greater)
same,Transmittance results,"[1]; Urolithin A 0.1, RYOTO polyglyester O-15D (HLB 13.0) 5 parts by weight, heated 80° C. 3 min",C (the transmittance was less than 40%)
same,Transmittance results,"[1]; Urolithin A 0.1, RYOTO polyglyester O-15D (HLB 13.0) 5 parts by weight, heated 100° C. 3 min",C (the transmittance was less than 40%)
same,Transmittance results,"[1]; Urolithin A 0.1, RYOTO polyglyester O-15D (HLB 13.0) 5 parts by weight, heated 120° C. 3 min",B (the transmittance was 40% or greater and less than 80%)
same,Transmittance results,"[1]; Urolithin A 0.1, RYOTO polyglyester O-50D (HLB 7) 5 parts by weight, heated 80° C. 3 min",C (the transmittance was less than 40%)
same,Transmittance results,"[1]; Urolithin A 0.1, RYOTO polyglyester O-50D (HLB 7) 5 parts by weight, heated 100° C. 3 min",C (the transmittance was less than 40%)
same,Transmittance results,"[1]; Urolithin A 0.1, RYOTO polyglyester O-50D (HLB 7) 5 parts by weight, heated 120° C. 3 min",C (the transmittance was less than 40%)
same,Transmittance results,"[1]; Urolithin A 0.1, Sugar ester S-1170 (HLB about 11) 5 parts by weight, heated 80° C. 3 min",C (the transmittance was less than 40%)
same,Transmittance results,"[1]; Urolithin A 0.1, Sugar ester S-1170 (HLB about 11) 5 parts by weight, heated 100° C. 3 min",C (the transmittance was less than 40%)
same,Transmittance results,"[1]; Urolithin A 0.1, Sugar ester S-1170 (HLB about 11) 5 parts by weight, heated 120° C. 3 min",C (the transmittance was less than 40%)
same,Transmittance results,"[2]; Urolithin A 0.2, Decaglyn 1-LF (HLB 15.5) 5 parts by weight",C (the transmittance was less than 40%)
same,Transmittance results,"[2]; Urolithin A 0.2, Decaglyn 1-LF (HLB 15.5) 10 parts by weight",B (the transmittance was 40% or greater and less than 80%)
same,Transmittance results,"[2]; Urolithin A 0.2, Decaglyn 1-LF (HLB 15.5) 50 parts by weight",A (the transmittance was 80% or greater)
same,Transmittance results,"[2]; Urolithin A 0.2, RYOTO polyglyester L-7D (HLB 17.0) 5 parts by weight",C (the transmittance was less than 40%)
same,Transmittance results,"[2]; Urolithin A 0.2, RYOTO polyglyester L-7D (HLB 17.0) 10 parts by weight",B (the transmittance was 40% or greater and less than 80%)
same,Transmittance results,"[2]; Urolithin A 0.2, RYOTO polyglyester L-7D (HLB 17.0) 50 parts by weight",A (the transmittance was 80% or greater)
same,Transmittance results,"[2]; Urolithin A 0.5, RYOTO polyglyester L-7D (HLB 17.0) 50 parts by weight",A (the transmittance was 80% or greater)
same,Transmittance results,[3]; [5],C (the transmittance was less than 40%)
same,Transmittance results,"[3]; Urolithin A 0.1, Decaglyn 1-LF (HLB 15.5) 5 parts by weight, heated 105° C. 3 min",C (the transmittance was less than 40%)
same,Transmittance results,[3]; [6],B (the transmittance was 40% or greater and less than 80%)
same,Transmittance results,"[3]; Urolithin A 0.1, Decaglyn 1-LF (HLB 15.5) 50 parts by weight, heated 100° C. 3 min",C (the transmittance was less than 40%)
same,Transmittance results,"[3]; Urolithin A 0.1, Decaglyn 1-LF (HLB 15.5) 50 parts by weight, heated 105° C. 3 min",A (the transmittance was 80% or greater)
same,Transmittance results,"[3]; Urolithin A 0.1, Decaglyn 1-LF (HLB 15.5) 50 parts by weight, heated 120° C. 3 min",A (the transmittance was 80% or greater)
same,Transmittance results,[3]; [7],C (the transmittance was less than 40%)
same,Transmittance results,"[3]; Urolithin A 0.1, RYOTO polyglyester L-7D (HLB 17.0) 5 parts by weight, heated 105° C. 3 min",C (the transmittance was less than 40%)
same,Transmittance results,[3]; [8],A (the transmittance was 80% or greater)
same,Transmittance results,"[3]; Urolithin A 0.1, RYOTO polyglyester L-7D (HLB 17.0) 50 parts by weight, heated 100° C. 3 min",C (the transmittance was less than 40%)
same,Transmittance results,"[3]; Urolithin A 0.1, RYOTO polyglyester L-7D (HLB 17.0) 50 parts by weight, heated 105° C. 3 min",A (the transmittance was 80% or greater)
same,Transmittance results,"[3]; Urolithin A 0.1, RYOTO polyglyester L-7D (HLB 17.0) 50 parts by weight, heated 120° C. 3 min",A (the transmittance was 80% or greater)
same,oil solubility,[4]; background statement,low
same,solubility in high-temperature vegetable oil or the like,[4]; background statement,not soluble
same,solubility in water,[4]; water at 30° C. (Patent Document 4),about 3.5 mg/L
